Measured values from DBAASP.
In brackets after ≈: the same amount, converted by molar mass. Several values for one entry are separate records, joined by “and”; a condition that tells them apart may be missing. Identical values can stand only once.

Assays:
Assay in all cases: ≥ marks a high value that may be exact or a test limit, other limits are often not marked, values filed in µg/mL are converted to µM
[1] = system: Acinetobacter baumannii MTCC 9829
[2] = system: Alcaligenes faecalis MTCC 1937
[3] = system: Alkalihalobacillus alcalophilus MTCC 860
[4] = system: Bordetella bronchiseptica MTCC 6837
[5] = system: Citrobacter freundii MTCC 1658
[6] = system: Citrobacter koseri MTCC 1657
[7] = system: Corynebacterium glutamicum MTCC 2679
[8] = system: Enterococcus faecalis MTCC 439
[9] = system: Escherichia coli K12 MG1655
[10] = system: Haemophilus influenzae MTCC 621
[11] = system: Klebsiella aerogenes MTCC 111
[12] = system: Klebsiella oxytoca MTCC 2275
[13] = system: Klebsiella pneumoniae MTCC 7407
[14] = system: Pluralibacter gergoviae MTCC 3826
[15] = system: Proteus mirabilis MTCC 3158
[16] = system: Proteus vulgaris MTCC 1771
[17] = system: Pseudomonas aeruginosa MTCC 3542
[18] = system: Salmonella enterica MTCC 9844
[19] = system: Salmonella enterica subsp. enterica serovar Typhimurium ATCC 14028
[20] = system: Shigella boydii MTCC 11947
[21] = system: Shigella flexneri MTCC 1457
[22] = system: Staphylococcus aureus MTCC 3160
[23] = system: Staphylococcus haemolyticus MTCC 3383
[24] = system: Stenotrophomonas maltophilia MTCC 1890
[25] = system: Vibrio cholerae MTCC 3904
[26] = system: Batrachochytrium dendrobatidis
[27] = system: Candida albicans ATCC 90028
[28] = system: Escherichia coli ATCC 25922
[29] = system: Staphylococcus aureus NCTC 8325
[30] = system: Acinetobacter baumannii
[31] = system: Escherichia coli K88
[32] = system: Escherichia coli K99
[33] = system: Escherichia coli UB1005
[34] = system: Escherichia coli
[35] = system: Klebsiella pneumoniae
[36] = system: Pseudomonas aeruginosa ATCC 27853
[37] = system: Pseudomonas aeruginosa CICC 21625
[38] = system: Pseudomonas aeruginosa CICC 21630
[39] = system: Pseudomonas aeruginosa PAO1
[40] = system: Pseudomonas aeruginosa
[41] = system: Salmonella enterica subsp. enterica serovar Pullorum C79-13
[42] = system: Salmonella enterica subsp. enterica serovar Typhimurium C77-31

Compound `CC(C)C[C@H](NC(=O)[C@H](Cc1cnc[nH]1)NC(=O)[C@H](CCCN=C(N)N)NC(=O)[C@H](CC(C)C)NC(=O)[C@H](CCCN=C(N)N)NC(=O)[C@H](CCC(N)=O)NC(=O)[C@@H](NC(=O)[C@H](C)NC(=O)[C@H](CCCN=C(N)N)NC(=O)[C@H](CCCN=C(N)N)NC(=O)[C@H](C)NC(=O)[C@@H](NC(=O)[C@H](CCCN=C(N)N)NC(=O)[C@H](Cc1c[nH]c2ccccc12)NC(=O)[C@@H](N)CCC(=O)O)C(C)C)C(C)C)C(=O)N[C@@H](C)C(=O)N[C@@H](CCCN=C(N)N)C(=O)N[C@@H](CCCN=C(N)N)C(=O)N[C@@H](Cc1ccc(O)cc1)C(=O)N[C@@H](Cc1cnc[nH]1)C(=O)O` [EWRVARRAVQRLRHLARRYH] has an MIC [1] of 6.08 µM (≈ 16 µg/mL), an MIC [2] of no less than 48.7 µM and an MIC [3] of 6.08 µM (≈ 16 µg/mL). For the same compound, the MIC [4] was 0.76 µM (≈ 2 µg/mL), the MIC [5] was 24.3 µM (≈ 64 µg/mL) and the MIC [6] was 6.08 µM (≈ 16 µg/mL). The MIC [7] was 0.38 µM (≈ 1 µg/mL), the MIC [8] was no less than 48.7 µM and the MIC [9] was 6.08 µM (≈ 16 µg/mL). It also gave an MIC [10] of 3.04 µM (≈ 8 µg/mL), an MIC [11] of no less than 48.7 µM and an MIC [12] of 3.04 µM (≈ 8 µg/mL). The MIC [13] was no less than 48.7 µM, the MIC [14] was no less than 48.7 µM and the MIC [15] was no less than 48.7 µM. The MIC [16] was no less than 48.7 µM, the MIC [17] was no less than 48.7 µM and the MIC [18] was 6.08 µM (≈ 16 µg/mL). It also gave an MIC [19] of 6.08 µM (≈ 16 µg/mL), an MIC [20] of 3.04 µM (≈ 8 µg/mL) and an MIC [21] of 0.38 µM (≈ 1 µg/mL). The MIC [22] was no less than 48.7 µM, the MIC [23] was 6.08 µM (≈ 16 µg/mL) and the MIC [24] was 24.3 µM (≈ 64 µg/mL). For the same compound, the MIC [25] was no less than 48.7 µM.

`CC[C@H](C)[C@@H]1NC(=O)[C@H](CCCCN)NC(=O)[C@@H](NC(=O)[C@H](CCCCN)NC(=O)[C@H](CC(C)C)NC(=O)[C@H](CCCCN)NC(=O)[C@H](CC(=O)O)NC(=O)[C@H](CC(C)C)NC(=O)[C@H](CCSC)NC(=O)[C@H](Cc2cnc[nH]2)NC(=O)CNC(=O)[C@H](C)NC(=O)[C@H](CC(C)C)NC(=O)[C@H](CC(N)=O)NC(=O)[C@H](CCCCN)NC(=O)[C@H](C)NC(=O)[C@@H](NC(=O)[C@H](CC(N)=O)NC(=O)[C@H](CCCCN)NC(=O)[C@@H](NC(=O)[C@@H](NC(=O)[C@H](CC(=O)O)NC(=O)[C@H](CCSC)NC(=O)[C@@H](N)CC(C)C)[C@@H](C)O)C(C)C)C(C)C)CSSC[C@@H](C(=O)O)NC(=O)CNC(=O)[C@H]([C@@H](C)O)NC1=O` [LMDTVKNVAKNLAGHMLDKLKCKITGC] was tested, and the MIC [26] was no less than 100 µM, the MIC [27] was no less than 67 µM and the MIC [28] was 13 µM (≈ 38.3 µg/mL). For the same compound, the MIC [29] was no less than 50 µM.

`CC[C@H](C)[C@H](N)C(=O)N[C@@H](CCCN=C(N)N)C(=O)N1CCC[C@H]1C(=O)N[C@H](C(=O)N[C@H](C(=O)N[C@@H](CCCN=C(N)N)C(=O)N1CCC[C@H]1C(=O)N[C@H](C(=O)N[C@H](C(=O)N[C@@H](CCCN=C(N)N)C(=O)N1CCC[C@H]1C(=O)N[C@H](C(=O)N[C@H](C(=O)N[C@@H](CCCN=C(N)N)C(=O)N1CCC[C@H]1C(=O)N[C@H](C(=O)N[C@H](C(=O)N[C@@H](CCCN=C(N)N)C(=O)N1CCC[C@H]1C(=O)N[C@H](C(=O)N[C@H](C(=O)N[C@@H](CCCN=C(N)N)C(=O)N1CCC[C@H]1C(=O)N[C@H](C(N)=O)[C@@H](C)CC)[C@@H](C)CC)[C@@H](C)CC)[C@@H](C)CC)[C@@H](C)CC)[C@@H](C)CC)[C@@H](C)CC)[C@@H](C)CC)[C@@H](C)CC)[C@@H](C)CC)[C@@H](C)CC` [IRPIIRPIIRPIIRPIIRPIIRPI] was tested, and the MIC [30] was 4 µM (≈ 11.6 µg/mL), the MIC [28] was 2 µM (≈ 5.79 µg/mL) and the MIC [31] was 1 µM (≈ 2.89 µg/mL). The MIC [32] was 2 µM (≈ 5.79 µg/mL), the MIC [33] was 2 µM (≈ 5.79 µg/mL) and the MIC [34] was 2 µM (≈ 5.79 µg/mL). The MIC [35] was 16 µM (≈ 46.3 µg/mL), the MIC [36] was 8 µM (≈ 23.2 µg/mL) and the MIC [37] was no less than 64 µM. It also gave an MIC [38] of no less than 64 µM, an MIC [39] of 8 µM (≈ 23.2 µg/mL) and an MIC [40] greater than 64 µM. It also gave an MIC [41] of 4 µM (≈ 11.6 µg/mL), an MIC [19] of 4 µM (≈ 11.6 µg/mL) and an MIC [42] of 4 µM (≈ 11.6 µg/mL).

Compound `CC(C)C[C@H](NC(=O)[C@H](CCCCN)NC(=O)CNC(=O)[C@H](C)NC(=O)[C@H](CCCN=C(N)N)NC(=O)[C@H](CO)NC(=O)[C@@H](N)CCC(=O)O)C(=O)N[C@@H](C)C(=O)N[C@@H](C)C(=O)N[C@@H](CCCCN)C(=O)N[C@@H](C)C(=O)N[C@@H](C)C(=O)N[C@@H](Cc1ccccc1)C(=O)N[C@@H](CCCCN)C(=O)N[C@@H](C)C(=O)N[C@@H](C)C(=O)N[C@@H](CCCCN)C(=O)N[C@@H](CCCN=C(N)N)C(=O)O` [ESRAGKLAAKAAFKAAKR] has an MIC [1] of no less than 68.3 µM, an MIC [2] of no less than 68.3 µM and an MIC [3] of no less than 68.3 µM. The MIC [4] was no less than 68.3 µM, the MIC [5] was no less than 68.3 µM and the MIC [6] was no less than 68.3 µM. The MIC [7] was no less than 68.3 µM, the MIC [8] was no less than 68.3 µM and the MIC [9] was no less than 68.3 µM. It also gave an MIC [10] of no less than 68.3 µM, an MIC [11] of no less than 68.3 µM and an MIC [12] of no less than 68.3 µM. The MIC [13] was no less than 68.3 µM, the MIC [14] was no less than 68.3 µM and the MIC [15] was no less than 68.3 µM. For the same compound, the MIC [16] was no less than 68.3 µM, the MIC [17] was no less than 68.3 µM and the MIC [18] was no less than 68.3 µM. The MIC [19] was greater than 68.3 µM, the MIC [20] was no less than 68.3 µM and the MIC [21] was no less than 68.3 µM. The MIC [22] was no less than 68.3 µM, the MIC [23] was no less than 68.3 µM and the MIC [24] was no less than 68.3 µM. It also gave an MIC [25] of no less than 68.3 µM.

With `CC[C@H](C)[C@H](NC(=O)[C@H](CC(C)C)NC(=O)[C@@H]1CCCN1C(=O)[C@H](CC(C)C)NC(=O)[C@@H](N)Cc1ccccc1)C(=O)NCC(=O)N[C@@H](CCCCN)C(=O)N[C@H](C(=O)N[C@@H](CC(C)C)C(=O)NCC(=O)N[C@H](C(=O)N[C@H](C(=O)N[C@@H](CC(C)C)C(N)=O)[C@@H](C)CC)[C@@H](C)O)[C@@H](C)CC` [FLPLIGKILGTIL] the MIC [26] was ≥ 50 µM and 25 µM, the MIC [27] was no less than 150 µM and the MIC [28] was 140 µM (≈ 196 µg/mL). It also gave an MIC [29] of 5 µM (≈ 6.98 µg/mL).
